Drawing on ChEMBL document CHEMBL5634134, “Design, synthesis, and biological evaluation of novel 4,4'-bipyridine derivatives acting as CDK9-Cyclin T1 protein-protein interaction inhibitors against triple-negative breast cancer” (Eur J Med Chem, 2023), this text covers IC50 for two compounds.

As usually defined, the IC50 is the point on the concentration scale where inhibition reaches its midpoint.

In series [1] the test system is MDA-MB-436. The series can be described thus: cells. The conditions noted are these: Homo sapiens.
The subject of series [2] is BT-549. Kind of series: cells. To be noted: Homo sapiens.
The subject of series [3] is MDA-MB-231. The series can be described thus: cells. To be noted: Homo sapiens.
Series [4] deals with MDA-MB-468. The series can be described thus: Antiproliferative activity against human MDA-MB-468 cells assessed as inhibition of cell growth by MTT assay. The class given is functional, cell-based. In general terms: Formazan colour is commonly taken as a measure of viable cells.
The test system of series [5] is MDA-MB-231. The series can be described thus: Antiproliferative activity against human MDA-MB-231 cells assessed as inhibition of cell growth by MTT assay. The format is functional, cell-based.
The test system of series [6] is BT-549. Kind of series: Antiproliferative activity against human BT-549 cells assessed as inhibition of cell growth by MTT assay. The format is functional, cell-based.
Series [7] concerns T47D. The series can be described thus: Antiproliferative activity against human T47D cells assessed as inhibition of cell growth by MTT assay. The format is functional, cell-based.
The nature of series [8]: Cytotoxicity against human L02 cells assessed as inhibition of cell growth by MTT assay. The format is toxicity, cell-based.
A short description of series [9]: Cytotoxicity against HEK293T cells assessed as inhibition of cell growth by MTT assay. The format is toxicity, cell-based, HEK-293T. The conditions noted are these: human.
Series [10] can be described thus: Cytotoxicity against human MCF-10A cells assessed as inhibition of cell growth by MTT assay. The format is toxicity, cell-based.

For the compound `COc1cc(F)ccc1-c1ncnc(Nc2cccc(C[S@](C)(=N)=O)c2)n1` [ATUVECICLIB], the IC50 in [1] worked out at 0.63 µM; in series [2], 2.01 µM; in series [3] it was 1.32 µM.
For `CCOc1cc(/C=N/O)ccc1OCC#CC1c2c(cc3c(c2OC)OCO3)CCN1C` (stereo not given), the IC50 is 7.4 µM in series [4]; 6.2 µM in [5]; 12.6 µM in series [6]; 52.5 µM in [7]; greater than 100 µM in series [8]; greater than 100 µM in series [9]. For the same compound, the IC50 in series [10] amounted to 35.5 µM.
